Data from PubChem BioAssay (NCI).
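Dose response: 5 concentrations. Exposure: 48 h. Format: 96-well plates. Endpoint: linear interpolation; highest concentration if not reached. GI50 = concentration required for 50% inhibition of growth. TGI is the concentration that stops growth completely.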

Key:
Test in all cases: growth of human tumour cells (NCI), 48 h
786-0 renal = tested on: 786-0 renal
A498 renal = tested on: A498 renal
A549 NSCLC = tested on: A549 NSCLC
ACHN renal = tested on: ACHN renal
BT-549 breast = tested on: BT-549 breast
CAKI-1 renal = tested on: CAKI-1 renal
CCRF-CEM leukemia = tested on: CCRF-CEM leukemia
COLO 205 colon = tested on: COLO 205 colon
DU-145 prostate = tested on: DU-145 prostate
EKVX NSCLC = tested on: EKVX NSCLC
HCC-2998 colon = tested on: HCC-2998 colon
HCT-15 colon = tested on: HCT-15 colon
HL-60(TB) leukemia = tested on: HL-60(TB) leukemia
HOP-62 NSCLC = tested on: HOP-62 NSCLC
HOP-92 NSCLC = tested on: HOP-92 NSCLC
HS 578T breast = tested on: HS 578T breast
HT29 colon = tested on: HT29 colon
IGROV1 ovarian = tested on: IGROV1 ovarian
K-562 leukemia = tested on: K-562 leukemia
KM12 colon = tested on: KM12 colon
M14 melanoma = tested on: M14 melanoma
MALME-3M melanoma = tested on: MALME-3M melanoma
MCF7 breast = tested on: MCF7 breast
MDA-MB-231 breast = tested on: MDA-MB-231 breast
MDA-MB-435 = tested on: MDA-MB-435
MOLT-4 leukemia = tested on: MOLT-4 leukemia
NCI-H226 lung = tested on: NCI-H226 lung
NCI-H23 lung = tested on: NCI-H23 lung
NCI-H460 lung = tested on: NCI-H460 lung
NCI-H522 lung = tested on: NCI-H522 lung
NCI/ADR-RES ovarian = tested on: NCI/ADR-RES ovarian
OVCAR-4 ovarian = tested on: OVCAR-4 ovarian
OVCAR-5 ovarian = tested on: OVCAR-5 ovarian
OVCAR-8 ovarian = tested on: OVCAR-8 ovarian
PC-3 prostate = tested on: PC-3 prostate
RPMI-8226 leukemia = tested on: RPMI-8226 leukemia
RXF 393 renal = tested on: RXF 393 renal
SF-268 CNS = tested on: SF-268 CNS
SF-295 CNS = tested on: SF-295 CNS
SF-539 CNS = tested on: SF-539 CNS
SK-MEL-2 melanoma = tested on: SK-MEL-2 melanoma
SK-MEL-28 melanoma = tested on: SK-MEL-28 melanoma
SK-MEL-5 melanoma = tested on: SK-MEL-5 melanoma
SK-OV-3 ovarian = tested on: SK-OV-3 ovarian
SN12C renal = tested on: SN12C renal
SNB-19 CNS = tested on: SNB-19 CNS
SNB-75 CNS = tested on: SNB-75 CNS
SW-620 colon = tested on: SW-620 colon
T-47D breast = tested on: T-47D breast
TK-10 renal = tested on: TK-10 renal
UACC-257 melanoma = tested on: UACC-257 melanoma
UACC-62 melanoma = tested on: UACC-62 melanoma
UO-31 renal = tested on: UO-31 renal
HCT-116 colon = tested on: HCT-116 colon
OVCAR-3 ovarian = tested on: OVCAR-3 ovarian
SR leukemia = tested on: SR leukemia
U251 CNS = tested on: U251 CNS

## NCCN1CCN(c2nc(-c3ccccc3)nc3nc(-c4ccccc4)oc23)CC1
786-0 renal
  GI50: 1.77 µM
  TGI: 3.64 µM
A498 renal
  GI50: 1.69 µM
  TGI: 3.31 µM
A549 NSCLC
  GI50: 1850 nM
  TGI: 3.91 µM
ACHN renal
  GI50: 1810 nM
  TGI: 3.29 µM
BT-549 breast
  GI50: 1.68 µM
  TGI: 3.31 µM
CAKI-1 renal
  GI50: 1640 nM
  TGI: 3.17 µM
CCRF-CEM leukemia
  GI50: 919 nM
  TGI: 3.29 µM
COLO 205 colon
  GI50: 1930 nM
  TGI: 3.92 µM
DU-145 prostate
  GI50: 1920 nM
  TGI: 3.45 µM
EKVX NSCLC
  GI50: 1670 nM
  TGI: 3.36 µM
HCC-2998 colon
  GI50: 1630 nM
  TGI: 3.06 µM
HCT-15 colon
  GI50: 1490 nM
  TGI: 2970 nM
HL-60(TB) leukemia
  GI50: 1860 nM
  TGI: 4.48 µM
HOP-62 NSCLC
  GI50: 2030 nM
  TGI: 4.55 µM
HOP-92 NSCLC
  GI50: 1.35 µM
  TGI: 2870 nM
HS 578T breast
  GI50: 2220 nM
  TGI: 5.06 µM
HT29 colon
  GI50: 1970 nM
  TGI: 4 µM
IGROV1 ovarian
  GI50: 1800 nM
  TGI: 3.49 µM
K-562 leukemia
  GI50: 287 nM
  TGI: 1010 nM
KM12 colon
  GI50: 1860 nM
  TGI: 3.47 µM
M14 melanoma
  GI50: 2040 nM
  TGI: 3.72 µM
MALME-3M melanoma
  GI50: 1750 nM
  TGI: 3.39 µM
MCF7 breast
  GI50: 1310 nM
  TGI: 2860 nM
MDA-MB-231 breast
  GI50: 1830 nM
  TGI: 3.56 µM
MDA-MB-435
  GI50: 1.82 µM
  TGI: 3.32 µM
MOLT-4 leukemia
  GI50: 2.08 µM
  TGI: 4.62 µM
NCI-H226 lung
  GI50: 1970 nM
  TGI: 4.13 µM
NCI-H23 lung
  GI50: 1690 nM
  TGI: 3.21 µM
NCI-H460 lung
  GI50: 1940 nM
  TGI: 3.69 µM
NCI-H522 lung
  GI50: 2160 nM
  TGI: 5.05 µM
NCI/ADR-RES ovarian
  GI50: 1900 nM
  TGI: 3.97 µM
OVCAR-4 ovarian
  GI50: 2150 nM
  TGI: 4.42 µM
OVCAR-5 ovarian
  GI50: 1770 nM
  TGI: 3.26 µM
OVCAR-8 ovarian
  GI50: 1.98 µM
  TGI: 4.46 µM
PC-3 prostate
  GI50: 1590 nM
  TGI: 3.06 µM
RPMI-8226 leukemia
  GI50: 1.88 µM
  TGI: 4.62 µM
RXF 393 renal
  GI50: 1630 nM
  TGI: 3.41 µM
SF-268 CNS
  GI50: 1.85 µM
  TGI: 3.96 µM
SF-295 CNS
  GI50: 1890 nM
  TGI: 3.6 µM
SF-539 CNS
  GI50: 1.79 µM
  TGI: 3.25 µM
SK-MEL-2 melanoma
  GI50: 22.3 µM
  TGI: 47.7 µM
SK-MEL-28 melanoma
  GI50: 1.79 µM
  TGI: 3.35 µM
SK-MEL-5 melanoma
  GI50: 1740 nM
  TGI: 3.18 µM
SK-OV-3 ovarian
  GI50: 1910 nM
  TGI: 3.69 µM
SN12C renal
  GI50: 1800 nM
  TGI: 3.5 µM
SNB-19 CNS
  GI50: 1820 nM
  TGI: 3.46 µM
SNB-75 CNS
  GI50: 1300 nM
  TGI: 2600 nM
SW-620 colon
  GI50: 1710 nM
  TGI: 3.3 µM
T-47D breast
  GI50: 2050 nM
  TGI: 4.66 µM
TK-10 renal
  GI50: 1.65 µM
  TGI: 3.39 µM
UACC-257 melanoma
  GI50: 3.34 µM
  TGI: 13.4 µM
UACC-62 melanoma
  GI50: 1850 nM
  TGI: 3.47 µM
UO-31 renal
  GI50: 1460 nM
  TGI: 3.01 µM

## Fc1ccc(-c2cc3nc(C(Cl)Cl)nc(-c4ccc(Cl)cc4)n3n2)cc1
786-0 renal
  GI50: 23.5 µM
  TGI: > 100 µM
A498 renal
  GI50: 4.95 µM
  TGI: 53.1 µM
A549 NSCLC
  GI50: 1800 nM
  TGI: 4.53 µM
ACHN renal
  GI50: 1600 nM
  TGI: 4.03 µM
BT-549 breast
  GI50: 94.7 µM
  TGI: > 100 µM
CAKI-1 renal
  GI50: 2960 nM
  TGI: > 100 µM
CCRF-CEM leukemia
  GI50: > 100000 nM
  TGI: > 100 µM
COLO 205 colon
  GI50: 1840 nM
  TGI: 4.05 µM
DU-145 prostate
  GI50: 1910 nM
  TGI: 5.84 µM
EKVX NSCLC
  GI50: 2940 nM
  TGI: 14.1 µM
HCC-2998 colon
  GI50: 1540 nM
  TGI: 3.14 µM
HCT-116 colon
  GI50: 3.3 µM
  TGI: > 100 µM
HCT-15 colon
  GI50: 2500 nM
  TGI: > 100000 nM
HL-60(TB) leukemia
  GI50: 2000 nM
  TGI: > 100 µM
HOP-62 NSCLC
  GI50: 2530 nM
  TGI: > 100 µM
HOP-92 NSCLC
  GI50: 4.66 µM
  TGI: > 100000 nM
HS 578T breast
  GI50: > 100000 nM
  TGI: > 100 µM
HT29 colon
  GI50: 1660 nM
  TGI: 5.36 µM
IGROV1 ovarian
  GI50: > 100000 nM
  TGI: > 100 µM
K-562 leukemia
  GI50: 4390 nM
  TGI: > 100000 nM
KM12 colon
  GI50: 3010 nM
  TGI: > 100 µM
MALME-3M melanoma
  GI50: > 100000 nM
  TGI: > 100 µM
MCF7 breast
  GI50: 2450 nM
  TGI: > 100000 nM
MDA-MB-231 breast
  GI50: 4080 nM
  TGI: > 100 µM
MDA-MB-435
  GI50: 6.6 µM
  TGI: > 100 µM
MOLT-4 leukemia
  GI50: 4.25 µM
  TGI: > 100 µM
NCI-H226 lung
  GI50: > 100000 nM
  TGI: > 100 µM
NCI-H460 lung
  GI50: 1760 nM
  TGI: 4.69 µM
NCI-H522 lung
  GI50: 3720 nM
  TGI: > 100 µM
NCI/ADR-RES ovarian
  GI50: 3320 nM
  TGI: > 100 µM
OVCAR-3 ovarian
  GI50: 2020 nM
  TGI: 4.5 µM
OVCAR-4 ovarian
  GI50: 3110 nM
  TGI: > 100 µM
OVCAR-5 ovarian
  GI50: 3920 nM
  TGI: > 100 µM
OVCAR-8 ovarian
  GI50: 4.03 µM
  TGI: > 100 µM
PC-3 prostate
  GI50: 3960 nM
  TGI: > 100 µM
RPMI-8226 leukemia
  GI50: 4.55 µM
  TGI: > 100 µM
SF-268 CNS
  GI50: 5.09 µM
  TGI: > 100 µM
SF-295 CNS
  GI50: 3040 nM
  TGI: 9.71 µM
SF-539 CNS
  GI50: 11.3 µM
  TGI: > 100 µM
SK-MEL-2 melanoma
  GI50: > 100 µM
  TGI: > 100 µM
SK-MEL-28 melanoma
  GI50: 8.28 µM
  TGI: > 100 µM
SK-MEL-5 melanoma
  GI50: > 100000 nM
  TGI: > 100 µM
SK-OV-3 ovarian
  GI50: 3230 nM
  TGI: > 100 µM
SN12C renal
  GI50: > 100000 nM
  TGI: > 100 µM
SNB-19 CNS
  GI50: 2960 nM
  TGI: > 100 µM
SNB-75 CNS
  GI50: > 100000 nM
  TGI: > 100000 nM
SR leukemia
  GI50: 3.01 µM
  TGI: > 100 µM
SW-620 colon
  GI50: 2910 nM
  TGI: > 100 µM
T-47D breast
  GI50: 3910 nM
  TGI: > 100 µM
TK-10 renal
  GI50: 7.6 µM
  TGI: > 100 µM
U251 CNS
  GI50: 1790 nM
  TGI: 4.36 µM
UACC-257 melanoma
  GI50: > 100 µM
  TGI: > 100 µM
UACC-62 melanoma
  GI50: > 100000 nM
  TGI: > 100 µM
